According to PubChem BioAssay (NCI):
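Step 1: Grow cells in 96-well plates. Step 2: Expose to compound for 48 hours at 5 concentrations. Step 3: Interpolate endpoints linearly; if unreached, use highest concentration. GI50 marks 50% less growth. TGI marks complete inhibition of growth.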

Columns and labels:
Experiment in all cases: DTP human tumour cell line panel, 48 h
SF-295 CNS = test system: SF-295 CNS
HS 578T breast = test system: HS 578T breast
OVCAR-5 ovarian = test system: OVCAR-5 ovarian
MCF7 breast = test system: MCF7 breast
RXF 393 renal = test system: RXF 393 renal
TK-10 renal = test system: TK-10 renal
T-47D breast = test system: T-47D breast
EKVX NSCLC = test system: EKVX NSCLC
SNB-19 CNS = test system: SNB-19 CNS
SK-MEL-2 melanoma = test system: SK-MEL-2 melanoma
DU-145 prostate = test system: DU-145 prostate
U251 CNS = test system: U251 CNS
HCT-116 colon = test system: HCT-116 colon
LOX IMVI melanoma = test system: LOX IMVI melanoma
SK-OV-3 ovarian = test system: SK-OV-3 ovarian
HCT-15 colon = test system: HCT-15 colon
SK-MEL-28 melanoma = test system: SK-MEL-28 melanoma
KM12 colon = test system: KM12 colon
SN12C renal = test system: SN12C renal
HL-60(TB) leukemia = test system: HL-60(TB) leukemia
SW-620 colon = test system: SW-620 colon
HT29 colon = test system: HT29 colon
MDA-MB-435 = test system: MDA-MB-435
NCI-H460 lung = test system: NCI-H460 lung
M14 melanoma = test system: M14 melanoma
786-0 renal = test system: 786-0 renal
NCI/ADR-RES ovarian = test system: NCI/ADR-RES ovarian
HCC-2998 colon = test system: HCC-2998 colon
HOP-62 NSCLC = test system: HOP-62 NSCLC
SF-539 CNS = test system: SF-539 CNS
SNB-75 CNS = test system: SNB-75 CNS
NCI-H23 lung = test system: NCI-H23 lung
K-562 leukemia = test system: K-562 leukemia
A549 NSCLC = test system: A549 NSCLC
OVCAR-4 ovarian = test system: OVCAR-4 ovarian
COLO 205 colon = test system: COLO 205 colon
IGROV1 ovarian = test system: IGROV1 ovarian
RPMI-8226 leukemia = test system: RPMI-8226 leukemia
MDA-MB-231 breast = test system: MDA-MB-231 breast
UO-31 renal = test system: UO-31 renal
MALME-3M melanoma = test system: MALME-3M melanoma
UACC-62 melanoma = test system: UACC-62 melanoma
ACHN renal = test system: ACHN renal
NCI-H522 lung = test system: NCI-H522 lung
SR leukemia = test system: SR leukemia
MOLT-4 leukemia = test system: MOLT-4 leukemia
SK-MEL-5 melanoma = test system: SK-MEL-5 melanoma
BT-549 breast = test system: BT-549 breast
OVCAR-8 ovarian = test system: OVCAR-8 ovarian
UACC-257 melanoma = test system: UACC-257 melanoma
HOP-92 NSCLC = test system: HOP-92 NSCLC
PC-3 prostate = test system: PC-3 prostate
A498 renal = test system: A498 renal
CCRF-CEM leukemia = test system: CCRF-CEM leukemia
NCI-H226 lung = test system: NCI-H226 lung
OVCAR-3 ovarian = test system: OVCAR-3 ovarian
SF-268 CNS = test system: SF-268 CNS
CAKI-1 renal = test system: CAKI-1 renal

## Brc1ccc2[nH]cc(-c3nn4cc(-c5nccs5)nc4s3)c2c1
SF-295 CNS
  GI50: 3 µM
  TGI: 9.89 µM
HS 578T breast
  GI50: 4.88 µM
  TGI: > 64 µM
OVCAR-5 ovarian
  GI50: 5.88 µM
  TGI: 22.1 µM
MCF7 breast
  GI50: 3.23 µM
  TGI: > 35.5 µM
RXF 393 renal
  GI50: 2.32 µM
  TGI: 5.01 µM
TK-10 renal
  GI50: 9.55 µM
  TGI: 24.2 µM
T-47D breast
  GI50: 3.19 µM
  TGI: > 75.7 µM
EKVX NSCLC
  GI50: 4.45 µM
  TGI: > 56.7 µM
SNB-19 CNS
  GI50: 6.62 µM
  TGI: 22.6 µM
SK-MEL-2 melanoma
  GI50: 28.6 µM
  TGI: > 100 µM
DU-145 prostate
  GI50: 5.39 µM
  TGI: 17.7 µM
U251 CNS
  GI50: 8.49 µM
  TGI: 21.3 µM
HCT-116 colon
  GI50: 1.82 µM
  TGI: 3.44 µM
LOX IMVI melanoma
  GI50: 2.41 µM
  TGI: 10.3 µM
SK-OV-3 ovarian
  GI50: 10.3 µM
  TGI: 26.3 µM
HCT-15 colon
  GI50: 3.25 µM
  TGI: > 34.7 µM
SK-MEL-28 melanoma
  GI50: 9.15 µM
  TGI: > 59.3 µM
KM12 colon
  GI50: 7.16 µM
  TGI: > 100 µM
SN12C renal
  GI50: 8.1 µM
  TGI: > 50.9 µM
HL-60(TB) leukemia
  GI50: 22.8 µM
  TGI: > 100 µM
SW-620 colon
  GI50: 6.68 µM
  TGI: > 58.1 µM
HT29 colon
  GI50: 7.9 µM
  TGI: > 69.1 µM
MDA-MB-435
  GI50: 4.4 µM
  TGI: 20.1 µM
NCI-H460 lung
  GI50: 2.51 µM
  TGI: 7.36 µM
M14 melanoma
  GI50: 3.58 µM
  TGI: 16.1 µM
786-0 renal
  GI50: 2 µM
  TGI: 4.11 µM
NCI/ADR-RES ovarian
  GI50: 2.28 µM
  TGI: 7.1 µM
HCC-2998 colon
  GI50: 2.65 µM
  TGI: > 22.3 µM
HOP-62 NSCLC
  GI50: 2.46 µM
  TGI: 11.2 µM
SF-539 CNS
  GI50: 3.14 µM
  TGI: 12.2 µM
SNB-75 CNS
  GI50: 1.79 µM
  TGI: 7.94 µM
NCI-H23 lung
  GI50: 2.49 µM
  TGI: 10.2 µM
K-562 leukemia
  GI50: 2.84 µM
  TGI: 11.9 µM
A549 NSCLC
  GI50: 2.6 µM
  TGI: 7.52 µM
OVCAR-4 ovarian
  GI50: 5.04 µM
  TGI: 14.9 µM
COLO 205 colon
  GI50: 5.31 µM
  TGI: 21.9 µM
IGROV1 ovarian
  GI50: 2.58 µM
  TGI: 14.6 µM
RPMI-8226 leukemia
  GI50: 2.25 µM
  TGI: 9.84 µM
MDA-MB-231 breast
  GI50: 1.82 µM
  TGI: 5.04 µM
UO-31 renal
  GI50: 1.73 µM
  TGI: 6.57 µM
MALME-3M melanoma
  GI50: 3.71 µM
  TGI: 12.1 µM
UACC-62 melanoma
  GI50: > 57.7 µM
  TGI: > 100 µM
ACHN renal
  GI50: 2.39 µM
  TGI: 7.4 µM
NCI-H522 lung
  GI50: 9.76 µM
  TGI: 36.9 µM
SR leukemia
  GI50: 5.21 µM
  TGI: > 50.7 µM
MOLT-4 leukemia
  GI50: 2.58 µM
  TGI: > 100 µM
SK-MEL-5 melanoma
  GI50: 3.86 µM
  TGI: 18 µM
BT-549 breast
  GI50: 3.22 µM
  TGI: 11.8 µM
OVCAR-8 ovarian
  GI50: 2.53 µM
  TGI: 6.77 µM
UACC-257 melanoma
  GI50: 10.5 µM
  TGI: > 62.5 µM
HOP-92 NSCLC
  GI50: 1.77 µM
  TGI: 4.56 µM
PC-3 prostate
  GI50: 2.36 µM
  TGI: 10.8 µM
A498 renal
  GI50: 16 µM
  TGI: 32 µM
CCRF-CEM leukemia
  GI50: 3.06 µM
  TGI: > 40 µM
NCI-H226 lung
  GI50: 2.28 µM
  TGI: 8.95 µM
OVCAR-3 ovarian
  GI50: 2.58 µM
  TGI: 7.62 µM
SF-268 CNS
  GI50: 7.98 µM
  TGI: 68.9 µM
CAKI-1 renal
  GI50: 2.46 µM
  TGI: 7.73 µM
